Series [1] deals with F. tularensis Schu S4. Kind of series: microbe, parasite or virus in culture. In kind it is cell-based, Francisella tularensis subspecies tularensis Schu S4. The conditions noted are these: Francisella tularensis, SCHUS4.
The subject of series [2] is F. tularensis Schu S4. In kind it is cell-based, Francisella tularensis subspecies tularensis Schu S4.
Series [3] deals with NH3-dependent NAD^+ synthetase (nadE). The conditions noted are these: read-out: enzymatic IC50; cited from earlier work.
For a further series, the system named is B. anthracis Sterne. The settings on record: cited from earlier work.

Results on 40 compounds are retold here after paper PMC3660459 (PLoS ONE, 2013).

In brackets after ≈: the same amount, converted by molar mass. Several values for one entry are separate records, joined by “and”; a condition that tells them apart may be missing. Identical values can stand only once. A value given as a limit tells only on which side of the number the result lay.

For the compound `OCC1OC(Oc2ccc(Cl)cc2Cl)C(O)C(O)C1O` (centres unmarked) [Compound 24, Clc1c(ccc(c1)Cl)OC2OC(C(C(C2O)O)O)CO], in the series on RAW 264.7 cells, the Toxicity entry is “non-toxic”. Besides, in the series with F. tularensis Schu S4 [1], the MIC was > 125 µg/mL and ~400 µM. Further, the “Growth Inhibition” value with F. tularensis Schu S4 [2] was “showed activity against the bacteria and Yes”.

`CC1=CC(O)(c2ccccc2)N(C(=O)c2ccncc2)N1` (centres unmarked) [Compound 39, N2(NC( = CC2(O)c3ccccc3)C)C( = O)c1ccncc1]: the “Growth Inhibition” value in the series with F. tularensis Schu S4 [2] was “No”.

For the compound `O=C(Cn1cc(/C=C/c2nc(O)nc(O)c2[N+](=O)[O-])c2ccccc21)Nc1ccc(F)cc1` [Compound 36, Fc1ccc(cc1)NC( = O)C[n]2c3c(c(c2)\C = C\c4nc(nc(c4[N+]( = O)[O-])O)O)cccc3], in the series on F. tularensis Schu S4 [2], the “Growth Inhibition” value is on record as “No”.

For the compound `COc1ccc([C@@H]2CC(=O)c3c(O)cc(O)cc3O2)cc1O` [Compound 33, O1[C@@H](CC( = O)c3c1cc(cc3O)O)c2cc(c(cc2)OC)O], the “Growth Inhibition” value in the series with F. tularensis Schu S4 [2] is “No”.

On to `Nc1nc(O)c2nc(CNc3ccc(C(=O)O)cc3)cnc2n1` [Compound 19, N(Cc2nc3c(nc(nc3O)N)nc2)c1ccc(cc1)C( = O)O], for which, in the series with F. tularensis Schu S4 [2], the “Growth Inhibition” value is “No”.

`Cc1cc(Nc2ccccc2)n(C(=O)c2ccc(Cl)cc2)n1` [Compound 14, Clc1ccc(cc1)C( = O)[n]2nc(cc2Nc3ccccc3)C] displayed an MIC against F. tularensis Schu S4 [1] of 4 µg/mL (≈ 12.8 µM). Besides, in the series with F. tularensis Schu S4 [2], the “Growth Inhibition” value is “showed activity against the bacteria and Yes”; the “Reduction of growth versus no-compound control” value is on record as “completely abolished bacterial growth”.

With “N2(NC( = CC2(O)c3cc(ccc3)OC)CC)C( = O)c1ccccc1 [Compound 38]”, the “Growth Inhibition” value in the series with F. tularensis Schu S4 [2] is given as “No”.

`Nc1ccccc1CN1C(=O)c2ccccc2C1=O` [Compound 15, N2(C( = O)c3c(cccc3)C2 = O)Cc1c(cccc1)N]: the “Growth Inhibition” value in the series on F. tularensis Schu S4 [2] is “No”.

For the compound `CCOc1ccc(NC2OC(CO)C(O)C(O)C2O)cc1` (centres unmarked) [Compound 25, N(C2OC(C(C(C2O)O)O)CO)c1ccc(cc1)OCC], the “Growth Inhibition” value with F. tularensis Schu S4 [2] was “No”.

Regarding `O=[N+]([O-])c1ccc(NC2OC(CO)C(O)C(O)C2O)cc1` (centres unmarked) [Compound 22, [N+]( = O)([O-])c1ccc(cc1)NC2OC(C(C(C2O)O)O)CO], the “Growth Inhibition” value in the series with F. tularensis Schu S4 [2] is “No”.

For `O.O.O=C1NC(c2ccccc2)(c2ccccc2)C(=O)N1COP(=O)(O)O` [Compound 2, [P]( = O)([O-])([O-])OCN1C( = O)NC(C1 = O)(c3ccccc3)c2ccccc2.O.O], in the series with F. tularensis Schu S4 [2], the “Growth Inhibition” value is “No”.

`O[C@@H]1[C@@H](O)[C@H](Nc2ccc(Br)cc2)OC[C@H]1O` [Compound 27, Brc1ccc(cc1)N[C@@H]2OC[C@H]([C@@H]([C@H]2O)O)O]: the “Growth Inhibition” value in the series with F. tularensis Schu S4 [2] was “No”.

With `NC(Cc1ccc(Br)s1)C(=O)O` (centres unmarked) [Compound 7, [s]1c(ccc1CC(N)C( = O)O)Br], the “Growth Inhibition” value in the series with F. tularensis Schu S4 [2] is recorded as “No”.

With `Cc1ccc(-c2cc(C(F)(F)F)nn2-c2ccc(S(N)(=O)=O)cc2)cc1` [Compound 4, FC(F)(F)c1n[n](c(c1)c3ccc(cc3)C)c2ccc(cc2)[S]( = O)( = O)N], the “Growth Inhibition” value with F. tularensis Schu S4 [2] is listed as “No”.

`Cc1nn2c(=O)c3ccccc3[nH]c2c1C=O` [Compound 13, [n]21nc(c(c2Nc3c(cccc3)C1 = O)C = O)C]: the Toxicity entry in the series on RAW 264.7 cells is reported as “non-toxic”. Also, the MIC against F. tularensis Schu S4 [1] was > 125 µg/mL and ~400 µM. Moreover, in the series with F. tularensis Schu S4 [2], the “Growth Inhibition” value was “showed activity against the bacteria and Yes”.

For `COc1ccc(C2(O)C=C(C)NN2C(=O)c2ccccc2)cc1` (centres unmarked) [Compound 40, N2(NC( = CC2(O)c3ccc(cc3)OC)C)C( = O)c1ccccc1], the “Growth Inhibition” value in the series on F. tularensis Schu S4 [2] is “No”.

Regarding `O=C1NN(c2cccc(Br)c2)C(=O)/C1=C\c1ccc(-c2ccccc2C(=O)O)o1` [Compound 9, Brc1cc(ccc1)N2NC( = O)\C( = C\c3[o]c(cc3)c4c(cccc4)C( = O)O)\C2 = O], the “Growth Inhibition” value in the series with F. tularensis Schu S4 [2] was “No”.

On to `CC(c1cc2ccccc2s1)N(O)C(N)=O` (centres unmarked) [Compound 3, [s]1c2c(cc1C(N(O)C( = O)N)C)cccc2], for which the “Growth Inhibition” value with F. tularensis Schu S4 [2] is reported as “No”.

`N#Cc1ccc(Oc2ccccc2O)c(F)c1` [Compound 16, Fc1c(ccc(c1)C#N)Oc2c(cccc2)O]: the “Growth Inhibition” value in the series with F. tularensis Schu S4 [2] is on record as “No”.

For `Cc1ccc(OC2OC(CO)C(O)C(O)C2O)cc1C` (centres unmarked) [Compound 23, O1C(C(C(C(C1CO)O)O)O)Oc2cc(c(cc2)C)C], the “Growth Inhibition” value in the series with F. tularensis Schu S4 [2] is on record as “No”.

Regarding `OCC1OC(Nc2ccccc2)C(O)C(O)C1O` (centres unmarked) [Compound 26, N(C2OC(C(C(C2O)O)O)CO)c1ccccc1], the “Growth Inhibition” value in the series with F. tularensis Schu S4 [2] is “No”.

Consider `CC(C)[C@H](N)C(=O)OCCOCn1cnc2c(O)nc(N)nc21` [Compound 34, [n]1(c2nc(nc(c2nc1)O)N)COCCOC( = O)[C@@H](N)C(C)C], for which the “Growth Inhibition” value in the series on F. tularensis Schu S4 [2] is given as “No”.

Turning to `O=[N+]([O-])c1ccc(O)c(/C=N/c2cccc(O)c2)c1` [Compound 35, [N+]( = O)([O-])c1cc(c(cc1)O)\C = N\c2cc(ccc2)O], the MIC was 32 µg/mL (≈ 124 µM) against F. tularensis Schu S4 [1] and above 387 µM in the series on B. anthracis Sterne. Further, the “Growth Inhibition” value in the series on F. tularensis Schu S4 [2] was “showed activity against the bacteria and Yes”. For the same compound, the “Reduction of growth versus no-compound control” value in the series on F. tularensis Schu S4 [2] is on record as “completely abolished bacterial growth”. Moreover, in series [3], the IC50 is 2500 nM.

`Cc1cc(CC(N)C(=O)O)on1` (centres unmarked) [Compound 6, NC(Cc1[o]nc(c1)C)C( = O)O]: the “Growth Inhibition” value with F. tularensis Schu S4 [2] is “No”.

Consider `NC(=O)c1ncn([C@@H]2O[C@H](CO)C(O)C2O)c1N` (some centres unmarked) [Compound 30, [n]2(cnc(c2N)C( = O)N)[C@@H]1O[C@@H](C(C1O)O)CO], for which, in the series with F. tularensis Schu S4 [2], the “Growth Inhibition” value is on record as “No”.

For `NC(=O)c1ccc(-c2ccc(/C=C3/C(=O)NN(c4ccc(F)cc4)C3=O)o2)cc1` [Compound 10, Fc1ccc(cc1)N2NC( = O)\C( = C\c3[o]c(cc3)c4ccc(cc4)C( = O)N)\C2 = O], the “Growth Inhibition” value in the series on F. tularensis Schu S4 [2] is “No”.

With `CCOC(=O)c1cc2c(nc1C(=O)OCC)CCCC2=O` [Compound 31, n1c2c(cc(c1C( = O)OCC)C( = O)OCC)C( = O)CCC2], in the series with F. tularensis Schu S4 [2], the “Growth Inhibition” value is given as “No”.

For `NC(=O)c1ccc(Oc2ccccc2O)c(F)c1` [Compound 17, Fc1c(ccc(c1)C( = O)N)Oc2c(cccc2)O], the “Growth Inhibition” value in the series with F. tularensis Schu S4 [2] was “No”.

As for `NC(=O)COc1cccnc1C(=O)O` [Compound 32, NC( = O)COc1c(nccc1)C( = O)O], in the series with F. tularensis Schu S4 [2], the “Growth Inhibition” value was “No”.

In the case of `Nc1nc(NC2CC2)c2ncn([C@H]3C=C[C@@H](CO)C3)c2n1` [Compound 1, [n]2(c3nc(nc(c3nc2)NC4CC4)N)[C@@H]1C[C@@H](C = C1)CO], in the series on F. tularensis Schu S4 [2], the “Growth Inhibition” value is “No”.

In the series with F. tularensis Schu S4 [1], `O=Cc1cnn2c(=O)c3ccccc3[nH]c12` [Compound 12, [n]21ncc(c2Nc3c(cccc3)C1 = O)C = O] yielded an MIC of 63 µg/mL (≈ 296 µM). The “Growth Inhibition” value in the series on F. tularensis Schu S4 [2] was “showed activity against the bacteria and Yes”.

Consider `C=C(O[C@@H]1C=C(C(=O)O)C=C[C@H]1O)C(=O)O` [Compound 8, O([C@H]1[C@@H](C = CC( = C1)C( = O)O)O)C( = C)C( = O)O], for which the “Growth Inhibition” value in the series with F. tularensis Schu S4 [2] was “No”.

`CC1(C)S[C@@H]2[C@H](NC(=O)COc3ccccc3)C(=O)N2[C@H]1C(=O)O` [Compound 37, S1[C@H]2N([C@H](C1(C)C)C( = O)[O-])C( = O)[C@H]2NC( = O)COc3ccccc3]: the “Growth Inhibition” value in the series on F. tularensis Schu S4 [2] is “No”.

With `Cc1cc2ccccc2n1CC(=O)NCc1cccnc1N(C)C` [Compound 18, [n]2(c3c(cc2C)cccc3)CC( = O)NCc1c(nccc1)N(C)C], the “Growth Inhibition” value in the series on F. tularensis Schu S4 [2] is recorded as “No”.

For the compound `COc1cc(C=O)ccc1OCc1ccccc1COc1ccc(/C=C2/SC(=S)NC2=O)cc1OC` [Compound 11, S1\C( = C\c2cc(c(cc2)OCc3c(cccc3)COc4c(cc(cc4)C = O)OC)OC)\C( = O)NC1 = S], the “Growth Inhibition” value in the series on F. tularensis Schu S4 [2] was “No”.

In the case of `NC(=O)c1ncn([C@@H]2O[C@H](CO)[C@@H](O)[C@H]2O)c1O` [Compound 28, [n]2(cnc(c2O)C( = O)N)[C@@H]1O[C@@H]([C@H]([C@H]1O)O)CO], in the series with F. tularensis Schu S4 [2], the “Growth Inhibition” value is “No”.

Regarding `NC(=O)c1nc[nH]c1C(N)=O` [Compound 21, [nH]1cnc(c1C( = O)N)C( = O)N], the “Growth Inhibition” value in the series with F. tularensis Schu S4 [2] is “No”.

As for `Cc1ccc(NC2OCC(O)C(O)C2O)cc1` (centres unmarked) [Compound 29, N(C2OCC(C(C2O)O)O)c1ccc(cc1)C], in the series on F. tularensis Schu S4 [2], the “Growth Inhibition” value is reported as “No”.

For `Nc1nc(N)c2nc(CNc3ccc(C(=O)O)cc3)cnc2n1` [Compound 20, N(Cc2nc3c(nc(nc3N)N)nc2)c1ccc(cc1)C( = O)[O-]], the “Growth Inhibition” value in the series with F. tularensis Schu S4 [2] was “No”.

As for `O=C1/C(=C\c2ccc(-n3ccnc3)cc2)Oc2cc(O)ccc21` [Compound 5, [n]4(cncc4)c1ccc(cc1)\C = C2\Oc3c(ccc(c3)O)C\2 = O], in the series on RAW 264.7 cells, the Toxicity entry is reported as “non-toxic”. Also, the MIC against F. tularensis Schu S4 [1] was above 125 µg/mL. Further, the “Growth Inhibition” value with F. tularensis Schu S4 [2] was “showed activity against the bacteria and Yes”.
